Structures are written as SMILES.

The test system of assay [1] is corn immature embryos. Nature of the assay: Callus induction and cell proliferation from corn immature embryos on medium with NO modulators. As to conditions: 0.01 mM SNAP, compared to other treatments and controls. The format is cell-based. The method, then: This example describes the use of nitric oxide modulators in Agrobacterium-mediated transformation of corn. Corn callus and embryos, with and without previous inoculation in Agrobacterium, were cultured on medium containing NO donors (0.1 mM SNP and 0.01 mM SNAP), a NO-synthase inhibitor (1 mM L-NMMA), and the enantiomer of the inhibitor as negative control (1 mM D-NMMA, which has no effect on NO-synthase). All chemicals were obtained from EMD Biosciences, Inc. (La Jolla, Calif.). Callus and embryos, with and without previous inoculation in Agrobacterium, cultured on MSW57 (Table 1) were used as additional controls. The increase in the percentage of explants expressing GFP recorded on media with NO donors from Day 3 to Day 6 might be due to compound degradation. […] Limiting nitric oxide (NO) production in immature embryos and callus could increase transient GFP expression.

For assay [2], the system named is corn immature embryos. Nature of the assay: Follow-up callus induction experiment, embryos on liquid MSW57 medium with L-NMMA or SNAP. The conditions noted are these: MSW57 plus 0.1 mM SNAP, 14-d in culture. The format is cell-based. Here is the method:
To follow up on this callus induction observation, a new experiment was set up where a typical embryo harvest was done from several ears and the embryos were distributed onto control medium MSW57, MSW57 plus 1.0 mM L-NMMA or 0.1 mM S-nitroso-N-acetylpenicillamine (SNAP, a NO donor compound). In this experiment the embryos were placed on a dark Millipore filter set on top of two pieces of felt.

Take `CC(=O)N[C@H](C(=O)O)C(C)(C)SN=O` (racemic) [SNAP, S-nitroso-N-acetylpenicillamine]: the “cell proliferation of embryo-derived callus” value in assay [1] is “significantly higher”. Moreover, in assay [2], the “embryos with callus induction versus control” value is on record as “more embryos with callus induction than the control”.
